# Data as given in article PMC12057046, “Elucidation of short linear motif-based interactions of the MIT and rhodanese domains of the ubiquitin-specific protease 8” (Biology Direct, 2025).
# Target: T1, USP8 Rhod domain (Homo sapiens, UniProt P40818)
# T1 construct: USP8 Rhod (174–317) (UniProt: P40818); GST (cleaved yes); made in house; host or cells: Escherichia coli BL21-Gold (DE3)
# T1 sequence (P40818 174-317): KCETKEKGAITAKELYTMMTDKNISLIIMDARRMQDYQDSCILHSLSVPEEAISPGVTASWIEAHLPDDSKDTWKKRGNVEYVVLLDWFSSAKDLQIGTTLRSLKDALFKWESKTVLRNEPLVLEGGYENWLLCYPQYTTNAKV
# Test: Peptide-phage display-based deep mutational scanning (DMS), USP8 Rhod domain
# Format: binding
# Details: PSSM, library USP8_DMS, days 2,3; position 7
# Description: Four rounds of phage selections were carried out using the second generation human disorderome library or the constructed deep mutational scanning library. At least three individual replicates were used for each bait protein. 10 µg of GST-tagged proteins or GST control (diluted in PBS from the stock of proteins kept in the purification elution buffer) were immobilized in 100 µL PBS on a 96-well MaxiSorp (Nunc) plate overnight at 4 °C. The plates were incubated with blocking buffer (with 0.5% BSA in PBS) for 1 h at 4 °C followed by washing with 0.05% Tween 20 in PBS four times. The naïve phage library (10^11 CFU) was diluted in 1/5th volume PEG/NaCl (20% PEG-8000, 0.4 M NaCl) and 1X PBS, incubated on ice for 10 min and centrifuged at 10,000 [drawing 3] g for 10 min. The pellet was resuspended in the volume of PBS (100 µL/ well). The GST-coated control plate was incubated with 100 µL library per well in PBS for 1 h at 4 °C to remove non-specific binders. The supernatant was transferred to the target wells and incubated for 2 h at 4 °C. The wells were washed five times with 0.05% Tween 20 in PBS and the bound phages were eluted with 100 µL per well log-phase E. coli OmniMAX by incubating at 37° C while shaking. After 30 min, M13KO7 helper phages were added and incubated for an additional 45 min. The bacterial cultures were transferred to 1 mL 2YT supplemented with 100 µg/mL carbenicillin, 30 µg/mL kanamycin and 0.3 mM IPTG and grew overnight at 37 °C while shaking. The following day the cultures were centrifuged for 10 min at 2,000 [drawing 4] g, 4 °C. 1/10th volume of 10 [drawing 5] PBS was added to adjust the pH and heated at 65 °C for 10 min. The phage pools from each round were used as in-phages for the next round of selections.
# The samples were prepared for NGS as previously described. […] The PCR products were normalized with 25 µL Mag-bind Total Pure NGS beads (Omega Biotek) and 10 µL of each eluted sample (Qiagen Elution Buffer) was pooled and cleaned-up with a PCR purification kit (Qiagen). The PCR product was confirmed by 2% agarose electrophoresis and the band was extracted with QIAquick Gel extraction Kit (Qiagen) and eluted with 30 µL TE buffer. The dsDNA was quantified using QuantiT PicoGreen dsDNA Assay Kit (Thermo Fisher) and sent for NGS (Illumina MiSeq v3, 1 × 150 bp read setup, 20% PhiX, NGI SciLifeLab facility, Sweden). The NGS data were demultiplexed, adapter regions were trimmed and sequences with an average quality of at least 20 were translated to peptide sequences. The NGS data were analysed using custom Python scripts. The total read NGS counts for each selection experiment of each peptide sequence were compiled and annotated in PepTools (https://slim.icr.ac.uk/tools/peptools/). Since ProP-PD is in essence a competition assay, the possibility of the input phage library influencing the selection outcome was explored. […] Pearson correlation coefficient and p-value were calculated using Python’s SciPy library.
enrichment_relative_to_wt at position 7 (wt G),proportion of amino acid at position 7 (wt G),Substance
-2,0.00809,"KIAA1614_Q5VZ46_569_584 G7Y (MERVLGYLSSPLRLLP; peptide 569-584; UniProt Q5VZ46 569-584, looked up, variant G7Y)"
1.36,0.02,"KIAA1614_Q5VZ46_569_584 G7E (MERVLGELSSPLRLLP; UniProt Q5VZ46 569-584, looked up, variant G7E)"
-2.84,0.00545,"KIAA1614_Q5VZ46_569_584 G7I (MERVLGILSSPLRLLP; peptide 569-584; UniProt Q5VZ46 569-584, looked up, variant G7I)"

# Same assay, conditions: ProP-PD DMS, bait USP8_Rhodanese__P40818_174_317; pair wild-type GMERVLGGLSSPLRLL (wt_00013) vs mutant; positive where wild-type fraction is higher, negative where mutant fraction is higher
row,Substance,hit_pair_ratio
1,GMERVLGGLSSPLELL,107.32
2,GMERVLGGLSSPLMLL,-10.76
3,GMERVLGGLSSPPRLL,160.99
4,GMERVLGGLSSPLWLL,-1.66
5,GMERVLGGLSSPLKLL,5.73
6,GMERVLGGLSSPLGLL,107.32
7,GMERVLGGLSSPLYLL,5.39
8,GMERVLGGLSSPLRLP,160.99
9,GMERVLGGLSSPLVLL,-21.41
10,GMERVLGGLSSSLRLL,8.62
11,GMERVLGGLSSPLQLL,59.13
12,GMERVLGGLSSPLRLA,131.67
13,GMERVLGGLSSTLRLL,131.67
14,GMERVLGGLSSLLRLL,321.97
15,GMERVLGGLSSRLRLL,160.99
16,GMERVLGGLSSPARLL,46.00
17,GMERVLGGLSSPLRLN,321.97

# Further lines, results first:
row,hit_pair_ratio,Substance
1,1.48,GMERVLGGLSSPLFLL
2,10.09,GMERVLGGWSSPLRLL
3,321.97,GMERVLGGLSSPLRLG
4,32.92,GMERVLGGYSSPLRLL
5,321.97,GMERVLGGLSYPLRLL
6,16.65,GMERVLGGLSSPYRLL

# Same assay, conditions: ProP-PD pairs, bait USP8_Rhodanese__P40818_174_317; wild-type/mutant pair, wild type KIAA1614 569-584 GMERVLGGLSSPLRLL (wt_00013)
row,Substance,hit_pair_ratio
1,GMERVLGGQSSPLRLL,-8.29
2,GMERVQGGLSSPLRLL,107.32
3,GMERVLVGLSSPLRLL,-3.34
4,GMERVLGDLSSPLRLL,321.97
5,GRERVLGGLSSPLRLL,1.40
6,GVERVLGGLSSPLRLL,-8.18
7,GMERDLGGLSSPLRLL,-11.89
8,GMERVLKGLSSPLRLL,131.67
9,VMERVLGGLSSPLRLL,53.66
10,GMEWVLGGLSSPLRLL,40.25
11,GMERVLGGVSSPLRLL,-2.88
12,GMERILGGLSSPLRLL,20.85
13,GMERQLGGLSSPLRLL,-6.89
14,GMERVLGGTSSPLRLL,-7.40
15,GMERVLFGLSSPLRLL,-3.55
16,GGERVLGGLSSPLRLL,-22.40
17,GMERVLGGPSSPLRLL,2.15

# Continued, values first:
row,hit_pair_ratio,Substance
1,-2.09,GMERYLGGLSSPLRLL
2,2.27,GMNRVLGGLSSPLRLL
3,23.00,GMTRVLGGLSSPLRLL
4,-5.12,GMERTLGGLSSPLRLL
5,5.91,GMERLLGGLSSPLRLL
6,107.32,GMENVLGGLSSPLRLL
7,160.99,GMVRVLGGLSSPLRLL
8,-3.21,GMERVIGGLSSPLRLL
9,-1.32,GMERMLGGLSSPLRLL
10,3.82,RMERVLGGLSSPLRLL

# Same assay, conditions: bait USP8_Rhodanese__P40818_174_317; wild-type/mutant pair ratio of averaged fractions; negative values where mutant fraction is higher
row,Substance,hit_pair_ratio
1,HMERVLGGLSSPLRLL,-2.43
2,GLALWEAKMKQLVERA,-3.40
3,GLALWEAKMKDLAERA,-1.51
4,GLALWEAKMPQLAERA,553.50
5,GLALWEAKMKLLAERA,-2.26
6,GLALWEAKMKQAAERA,417.62
7,GLALWEAKMKILAERA,553.50
8,GLALWEAKMKQLMERA,81.38
9,GLALWEAKMKQLAIRA,1107.01
10,GLALWEAKMKHLAERA,17.96
11,GLALWEAKMKQLAWRA,1107.01
12,GLALWEAKMKTLAERA,33.74
13,GLALWEAKMKFLAERA,1107.01
14,GLALWEAKMKQLYERA,195.90
15,PMERVLGGLSSPLRLL,1.96

# Now from value to substance:
row,hit_pair_ratio,Substance
1,25.01,GLALWEAKMDQLAERA
2,221.40,GLALWEAKMKWLAERA
3,5.73,GLALWEAKMKGLAERA
4,-10.12,GLALWEAKMKQLAEYA
5,-3.11,GLALWEAKMKQLAESA
6,1107.01,GLALWEAKMKQKAERA
7,208.81,GLALWEAKMKQLAERH
8,73.80,GLALWEAKMKQLAERG

# Same assay, conditions: wild type/mutant pair; bait USP8_Rhodanese__P40818_174_317; vs hit_library_peptide_wt GLALWEAKMKQLAERA; negative where mutant fraction exceeds wild type; ProP-PD pairs (sheet S7.B)
row,Substance,hit_pair_ratio
1,GLALWSAKMKQLAERA,21.71
2,GWALWEAKMKQLAERA,11.95
3,GLAFWEAKMKQLAERA,21.29
4,GLALWEHKMKQLAERA,2.05
5,GLALWAAKMKQLAERA,553.50
6,GLGLWEAKMKQLAERA,123.66
7,GLALGEAKMKQLAERA,65.12
8,GLAMWEAKMKQLAERA,-5.97
9,GLALWEAQMKQLAERA,1107.01
10,GLALWEAKSKQLAERA,-2.49
11,GLALWEAKWKQLAERA,2.15
12,GLALLEAKMKQLAERA,417.62
13,GLALWEAKTKQLAERA,26.45
14,GLALWEFKMKQLAERA,1107.01
15,GLALWEAKRKQLAERA,44.28
16,GLAHWEAKMKQLAERA,369.00
17,KLALWEAKMKQLAERA,238.03
18,RLALWEAKMKQLAERA,1107.01
19,GLATWEAKMKQLAERA,8.05
20,QLALWEAKMKQLAERA,553.50
21,GLALWFAKMKQLAERA,553.50
22,GLALTEAKMKQLAERA,1107.01
23,GMALWEAKMKQLAERA,7.96
24,GLALWEEKMKQLAERA,553.50
25,GAALWEAKMKQLAERA,1107.01
26,GLILWEAKMKQLAERA,1107.01
27,GLALWGAKMKQLAERA,24.44

# The remaining lines, values ahead:
row,hit_pair_ratio,Substance
1,276.75,GLALWEAPMKQLAERA
2,1107.01,GRALWEAKMKQLAERA
3,123.00,GLALWEIKMKQLAERA
4,-19.47,GLALWEAKMNQLAERA
5,553.50,GLALKEAKMKQLAERA
6,-1.71,GLQLWEAKMKQLAERA
7,16.52,GLALMEAKMKQLAERA
8,417.62,GLALWVAKMKQLAERA
9,1107.01,GLAPWEAKMKQLAERA
10,33.04,GLSLWEAKMKQLAERA
11,195.90,GLALWEAKPKQLAERA
12,303.23,GLALREAKMKQLAERA
13,24.65,GLALWENKMKQLAERA
14,4.24,GLANWEAKMKQLAERA
15,1.27,GIALWEAKMKQLAERA
